Measured values: patent US20050032713A1, “Platelet-activating factor antagonists as analgesic, anti-inflammatory, uterine contraction inhibiting, and anti-tumor agents” (priority 2002, published 2005)
“Also recorded” adds a separate entry of the source. Like-named read-outs stand apart in the source and are kept apart here.

How the values were obtained:
[1] = test system: astrocyte-enriched cortical cell cultures; assay: PGE2 release (ELISA) from astrocyte-enriched cortical cell cultures exposed to PAF analogs, related lipids or AA; assay type: cell-based, rat
Method: (§1) All experimental protocols were approved by the Massachusetts Institute of Technology institutional review committee and meet the guidelines of the National Institutes of Health. Dissociated astrocytes were cultured from cortices of postnatal day 1-2 rat pups (as described by K. D. McCarthy, et al., Preparation of separate astroglial and oligodendroglial cell cultures from rat cerebral tissue, J. Cell Biol. 85 (1980) 890-902, with minor modifications R. K. K. Lee, et al., Metabolic glutamate receptors increase amyloid precursor protein processing in astrocytes: inhibition by cyclic AMP, J. Neurochem. 68 (1997) 1830-1835.) In brief, cells from dissociated cortices were plated onto poly-L-lysine coated 35- or 100 mm culture dishes. The initial culture media, minimal essential medium (MEM, Gibco-Life Technologies; Rockville, Md.) containing 15% horse serum (BioWhittaker; Walkersville, Md.), were aspirated 2-5 h after plating to remove unattached cells and debris, and replaced with MEM containing 5% fetal bovine serum (FBS, BioWhittaker; Walkersville, Md.). Half the medium was replaced with MEM/5% FBS twice weekly. Astrocytes were kept at 37° C. in a humidified 5% CO2/95% air incubator for 9-15 days, by which time the cultures were confluent and could be used for experiments.
(§2) Mc-PAF (Biomol; Plymouth Meeting, PA) was dissolved in methanol at a stock concentration of 10 mM. PAF-16, PAF-18, lyso-PAF, AA (Cayman Chemicals), lyso-PC and PC (Sigma) were dissolved in ethanol at stock concentrations of 10 mM. All stock solutions of lipids were stored at −80° C. and were used within 6 weeks of reconstitution. BN 52021 and CV 6209 (Biomol) were dissolved in ethanol. These PAF antagonists were stored at −20° C. in stock concentrations of 100 mM. BN 50730 (Biomeasure; Milford, Mass.) was dissolved in 45% hydroxy-B-cyclodextrin (HBC). All agents were diluted in warned serum-free medium prior to cell stimulation. Equal amounts of vehicle was added to control cells.
(§3) Cells used for all experiments were established in vitro 9-15 days prior to use in experiments and were over 95% confluent. Serum-containing media were changed every 3-4 days. Cells were serum-deprived 24 hours prior to experimental treatments. Where treatment with PAF antagonists is indicated, these compounds were added 30 minutes prior to the addition of other agents.
(§4) PGE2 levels were measured by ELISA according to manufacturer's instructions (Cayman Chemicals, Ann Arbor, Mich.). Since the amount of PGE2 in fresh medium was negligible, (J. Luo, et al., Transforming growth factor B1 regulates the expression of cyclooxygenase in cultured cortical astrocytes and neurons, J. Neurochem. 71 (1998) 526-534), direct assays of the PGE2 concentration in cell-conditioned medium was used as a measurement of PGE2 secretion by cultured cells. Results were derived from at least 3 separate experiments, assayed in duplicate or triplicate (n=6-8). The reliable detection limit of this assay (i.e. sensitivity) averaged 14+/−6 pg of PGE2.

[2] = test system: primary cortical astrocytes; assay: Effect of COX inhibitors on mc-PAF-induced PGE2 release from primary astrocytes (Example 3); assay type: cell-based, rat; details: mc-PAF 0.001 to 1 μM, 30 min
Method: Mc-PAF (Cayman Chemical, Ann Arbor, Mich.) was dissolved in ethanol at a stock concentration of 10 mM. Indomethacin, piroxicam, NS-398 (Biomol; Plymouth Meeting, Mass.), and SC-560 (Cayman Chemical) were dissolved in 45% hydroxy-β-cyclodextrin (HBC; Sigma, St. Louis, Mo.). Cells were serum-deprived for 24 hrs prior to experimental treatments to induce quiescence. Where treatment with inhibitors is indicated, these compounds were added 30 min prior to the addition of mc-PAF.
Direct assay of the PGE2 concentration in cell-conditioned medium was used as an index of PGE2 secretion by primary astrocytes. PGE2 levels were measured by ELISA according to manufacturer's instructions (Cayman Chemicals, Ann Arbor, Mich.), as described.
Results were derived from at least 3 separate experiments, assayed in duplicate or triplicate (n=6−8). Data were expressed as means+/−SEMs. Statistical analyses were performed using ANOVAs for comparisons between groups, followed by Fischer's PLSD post hoc comparisons by means contrast. p values <0.05 were considered statistically significant.

COX-2 = COX-2 protein level after mc-PAF stimulation (immunocytochemical and Western blot analyses); assay type: cell-based, rat; details: within 30 min of mc-PAF stimulation; data not shown
COX-1 = COX-1 protein level after mc-PAF stimulation (immunocytochemical and Western blot analyses); assay type: cell-based, rat; details: within 30 min of mc-PAF stimulation; data not shown
[3] = test system: astrocyte-enriched cortical cell cultures
[4] = test system: formalin-induced nociception; assay: Formalin test, intrathecal injection (spinal cord); assay type: in vivo, rat; details: for nociceptive response: injected intrathecally (into the spinal cord), 10, 1 or 0.1 μg, 20 minutes prior to formalin
Method: (§5) The day prior to formalin testing, rats were placed in the boxes for a 15 min habituation period. The day of testing, vehicle or PAF antagonists were administered and the rats were placed in the boxes for 20 min. At this time, animals were removed from the box, and 50 μl of 1% formalin (0.4% formaldehyde) was injected subcutaneously into the plantar surface of the right hind paw with a 27-gauge needle. Immediately after injection, each animal was exposed to the open field box for 60 min and the amount of time they elevated their injected paw was recorded as described for previous Examples.
(§6) Data were expressed as means+/−SEM and p values <0.05 were considered statistically significant. Experimental groups were compared using a one-way analysis of variance (ANOVA) with repeated measures (5 min blocks of time) followed by Scheffe's post-hoc test. Independent t-tests were used to assess the effects of the PAF antagonists on the individual 5 min bins of time post-formalin as well.

[5] = test system: formalin-induced nociception; assay: Formalin test, systemic (i.p.) administration; assay type: in vivo, rat; details: for nociceptive response (paw elevation time), early phase: 1-10 minutes post-formalin; for nociceptive response (paw elevation time), early phase / nociceptive response (paw elevation time), late phase: 10, 1 or 0.1 mg/kg i.p. 40 minutes prior to formalin; for nociceptive response (paw elevation time), late phase: 10-60 min post-formalin, vs control-treated rats; for dose-response relationship of decrease in nociceptive behavior: three doses 10, 1, 0.1 mg/kg i.p.
Method: Sixty male Sprague Dawley rats weighing 300-350 g (Taconic Labs, Canada) were housed in groups of 2-3 per cage, in polycarbonate cages. Animals were maintained under standard environmental conditions (room temperature: 20-20° C.; relative humidity: 55-60%; light/dark schedule: 12/12 hr) with free access to standard laboratory chow and tap water.
BN 50730 (Biomeasure; Milford, Mass.) and BN 52021 (Biomol) were dissolved in 45% hydroxypropyl-B-cyclodextrin in distilled water (HBC). Drugs (at doses of 10, 1, or 0.1 mg/kg) or vehicle were administered intraperitoneally (i.p.) 40 minutes prior to formalin injection. The doses chosen were based on those found to produce central effects after their peripheral administration.
Experiments were carried out in accordance with The National Institutes of Health Guide for the Care and Use of Laboratory Animals. Behavioral testing was carried out in a blind manner. Nociceptive responses were examined in the formalin test described previously, (Dubisson et al., The formalin test: a quantitative study of the analgesic effects of morphine, meperidine, and brain stimulation of rats and cats. Pain 4 (1977) 161-174). In brief, animals were placed in a clear Plexiglas® formalin test box (30 cm×30 cm×30 cm), with a mirror positioned at a 45° angle below the floor allowing for unobstructed observation of the animal's paw. Following a 10-min habituation period, animals were removed from the formalin box, at which time 50 μl of 1% formalin was injected subcutaneously (s.c.) into the plantar surface of the right hind paw with a 27-gauge needle. The amount of time that each rat elevated the injected paw was recorded in five-min intervals during the […] period following formalin injection. Each animal was used once.
The 60-min formalin test produced a biphasic response consisting of an initial, rapidly decaying acute phase (early phase, 1-10 minutes after injection) followed by a slow rising and long-lived tonic phase (late phase, 15-60 minutes after injection). Typically animals elevated their paws following injection (i.e. the early phase) followed by a reduction in this behavior. Approximately 15-20 minutes after injection, the inflammatory late phase began, and animals again elevated their paws to varying degrees for the remainder of the testing period. The amount of time animals elevated their injected paw was used as a behavioral measure of pain.
Data were expressed as means+/−SEM, and p values <0.05 were considered statistically significant. Treatment groups were compared with vehicle-controls using one-way analysis of variance (ANOVA) followed by Fischer's PLSD post-hoc test to compare between groups if overall significance was found by ANOVA.

[6] = test system: formalin-induced nociception; assay: Formalin test, injection into the lateral ventricle; assay type: in vivo, rat; details: for nociceptive response (paw elevation), group effect: lateral ventricle, 10, 1 or 0.1 μg, 20 min prior to formalin, ANOVA
Method: Animals were anesthetized (50 mg/kg sodium pentobarbitol), and unilateral guide cannulae (23 gauge) were implanted into the lateral ventricle. The guide cannulae were attached to the skull using jeweler's screws and dental acrylic. After surgery, stylets were inserted and left in place to ensure cannula patency. The formalin test was conducted 7-10 days post-surgery.
as §5
(§7) Upon completion of testing, animals were overdosed with sodium pentobarbitol and perfused with saline followed by 10% formalin solution. Brains were removed, fixed, and cut into 20-μm coronal sections throughout the cannula tract. Sections were then mounted, stained with cresyl violet, and coverslipped. […] The behavioral data for 4 rats were discarded from the study due to incorrect cannulae placement.
as §6

[7] = test system: formalin-induced nociception; assay: Formalin test, intra-hippocampal injection; assay type: in vivo, rat
Method: as §5, §7, §6

[8] = test system: astrocyte-enriched cortical cell cultures; assay: Effect of PAF antagonists on mc-PAF-, lyso-PAF- and AA-induced PGE2 release from astrocytes; assay type: cell-based, rat; details: for mc-PAF-induced PGE2 release: antagonist added 30 min before mc-PAF (1 μM), 30 min, BN 50730 0.1-100 μM, BN 52021 and CV 6209 1-50 μM; for AA-induced PGE2 release / lyso-PAF-induced PGE2 release: antagonist added 30 min prior
Method: as §1, §2, §3, §4

| SMILES | nociceptive response [4] | nociceptive response (paw elevation time), early phase [5] | nociceptive response (paw elevation time), late phase [5] | dose-response relationship of decrease in nociceptive behavior [5] | nociceptive response (paw elevation), group effect [6] | nociceptive behavior during the tonic or late phase [7] | mc-PAF-induced PGE2 release [8] | AA-induced PGE2 release [8] | lyso-PAF-induced PGE2 release [8] | further results |
| --- | --- | --- | --- | --- | --- | --- | --- | --- | --- | --- |
| CCCCCCCCCCCCCCCCOC[C@H](COP(=O)([O-])OCC[N+](C)(C)C)OC(=O)NC [mc-PAF, methylcarbamyl-PAF] |  |  |  |  |  |  |  |  |  | time at which PGE2 levels returned to baseline ([1]; 1 μM mc-PAF): ≤ 12 h; time of maximum mobilization of PGE2 ([1]; 1 μM mc-PAF): 30 min; time of second, smaller peak of PGE2 release ([1]; 1 μM mc-PAF): 8 h; time to first observed increase in PGE2 release ([1]; 1 μM mc-PAF): ≤ 5 min; PGE2 release over time ([1]; 1 μM mc-PAF, 37° C., various times): time-dependent increase; PGE2 release into the conditioned media ([1]; 30 min, 37° C., various concentrations): concentration-dependent increases; release of PGE2 into the conditioned media [2]: concentration-dependent increases; COX-2 protein levels (COX-2): did not increase; COX-1 protein levels (COX-1): did not increase; toxicity to cells ([3]; 1 μM mc-PAF): does not appear to have toxic effects; toxicity to cells ([3]; 10 μM mc-PAF, 24 hours): cytologic evidence of toxicity |
| COc1ccc(NC(=S)N2CCc3c(sc4c3C(c3ccccc3Cl)=NCc3nnc(C)n3-4)C2)cc1 [BN 50730] | decreased the nociceptive response | not significantly affected | significantly shorter paw elevation times; also recorded: decreased nociceptive behavior | a dose-response relationship was not revealed | not significantly affected | not | attenuates; also recorded: prevented; also recorded: completely abolished | significantly attenuated; also recorded: only attenuated; also recorded: attenuates | significantly attenuated; also recorded: completely abolished; also recorded: attenuates | comparative efficacy when administered to the spinal cord ([4]; administered to the spinal cord (Example 4)): more effective than BN 52021; basal release of PGE2 ([8]; higher concentrations of BN 50730): reduce the basal release of PGE2 |
| C[C@@H]1C(=O)O[C@H]2[C@H](O)[C@@]34[C@H]5C[C@@H](C(C)(C)C)[C@]36[C@@H](OC(=O)[C@@H]6O)O[C@@]4(C(=O)O5)[C@@]12O [BN 52021, ginkolide B] | not | not significantly affected | significantly shorter times; also recorded: decreased nociceptive behavior | a dose-response relationship was not revealed | significantly affected | decreases nociceptive behavior | no significant effect; also recorded: did not significantly influence; also recorded: do not attenuate | had no effect | had no effect | comparative efficacy when administered to the brain ([6]; administered to the brain (Example 4)): more effective than BN 50730; paw elevation at 50 min post-formalin ([6]; lateral ventricle, 1 μg): decreased paw elevation; levels of paw elevation between 30 and 45 min post-formalin ([6]; lateral ventricle, 10 and 1 μg, independent t-tests): significantly attenuated; nociceptive responses compared with control-treated rats ([6]; lateral ventricle, 10 or 1 μg, Scheffe's post-hoc): significantly diminished; PGE2 release, antagonist administered alone ([8]; no mc-PAF): PGE2 release was increased |
